The text below walks through data of patent publication US20220009918A1, “Chemical Compounds” (GlaxoSmithKline Intellectual Property Development Limited, priority 2018, published 2022).

Each structure is given as a SMILES string. “Also recorded” adds a separate entry of the source.

The test system of experiment [1] is prostaglandin D2 generation following 48/80-induced mast cell degranulation. Description: In vivo mast cell activation: compound 48/80 challenge, peritoneal lavage PGD2 by LC/MS/MS. The conditions noted are these: normal C57Bl6/N mice, oral 0.01-1.0 mg/kg ~1 hour prior to 48/80 (i.p.), lavage 7 minutes afterwards. Details: species or system mouse. Here is the method:
In Vivo Mast Cell Activation
Mice were randomized by body weight into 8 groups (n=8): Vehicle (0.5% HPML with 0.1% Tween80)+phosphate buffered saline (PBS), vehicle+compound 48/80 (0.75 mg/mL) and compound 48/80+Example 16 at various doses ranging from 0.01 mg/kg to 1.0 mg/kg.
C57BL mice were dosed orally with vehicle, or Example 16 at 0.01, 0.03, 0.1, 0.3, & 1.0 mg/kg. One hour later, blood samples were withdrawn via tail snip for measurement of drug levels, and mice were then terminally anesthetized with 2% isoflurane and given an intraperitoneal injection of 0.2 mL PBS or compound 48/80 solution (0.75 mg/mL, Sigma), followed by gentle massage of the abdomen. […]
Samples were thawed at room temperature and vortex-mixed. […] The plate was vortex-mixed for 30 seconds at 1000 rpm and analyzed by LC/MS/MS.
The analytical system consisted of a CTC HTS PAL autoinjector (Leap, Carrboro, N.C.), an Agilent 1290 Infinity binary pump and thermostated column compartment (Agilent Technologies, Santa Clara, Calif.) and an AB Sciex QTRAP 5500 mass spectrometer (AB Sciex, Framingham, Mass.). […] The analytes were detected by multiple reaction monitoring (MRM) in negative mode using Turbolon spray with the transitions of m/z 351/271 amu for PGD2/PGE2 and m/z 360/280 amu for PGD2-d9/PGE2-d9. Data were acquired, analyzed and quantified using Analyst software version 1.6.2 (AB Sciex, Framingham, Mass.). […]

For experiment [2], the system named is male C57Bl/6N mice. The experiment in a line: In vivo functional response to muscle injury (eccentric contraction-induced). Further details: species or system mouse. Here is the method: FIG. 1. Effect of different doses of an H-PGDS inhibitor, Example 16, on limb force following eccentric (lengthening) contraction-induced muscle injury in normal C57Bl6/N mice. Doses were administered 10 minutes prior to damage and QD thereafter.
In Vivo Assays for Functional Response to Muscle Injury
Under anesthesia, the right hind limb of a mouse is restrained at the knee and the foot attached to a motorized footplate/force transducer. Needle electrodes are inserted into the upper limb, either side of the sciatic nerve and a current sufficient to elicit a maximal muscle contraction is applied. Muscle tension is produced by moving the footplate to lengthen the plantarflexor muscles while the limb is under maximal stimulation. This is repeated 60 times to fatigue the muscles of the lower limb. Anesthesia, limb immobilization and limb stimulation are then repeated at regular intervals to measure maximal isometric force in the recovering limb. 7 to 9 animals are tested for each test condition.

Turning to `CC1(C)C[C@H](NC(=O)c2cnc(-c3cc(F)cc(Cl)c3)s2)C(=O)N1` (single isomer, unassigned) [Example 16], the “PGD2 generation in peritoneal lavage fluid following compound 48/80 challenge (FIG. 2)” value in experiment [1] is given as “prevents 48/80-induced PGD2 generation; also recorded: Dose-Dependent Reduction in Peritoneal Lavage Fluid PGD2”. Further, the “protection from strength loss (maximal isometric torque) 24 hours after injury” value in experiment [2] (male C57Bl/6N mice, PO immediately prior to eccentric contraction challenge) is reported as “dose-dependent protection from strength loss”. Further, in experiment [2] (male C57Bl/6N mice, repeat dosing (QD) PO, all doses greater than 0.1 mg/kg), the “restoration of muscle function after 9 days” value was “full restoration of muscle function”. The “limb force / functional repair following eccentric contraction-induced limb muscle injury (FIG. 1)” value in experiment [2] (normal C57Bl6/N mice, doses 10 minutes prior to damage and QD thereafter) is “Accelerates Functional Repair”.
